Experimental data published in US11040028B2, “Penicinotam derivative, preparation method and use thereof” (OCEAN UNIVERSITY OF CHINA, priority 2017, dated 2021).

How the values were obtained:
Assay type in all cases: cell-based
[1] = test system: human fibrosarcoma cells HT-1080; experiment: Anti-fibrosis activity test: inhibition of proliferation of human fibrosarcoma cells HT-1080 (CCK-8); conditions: Homo sapiens, HT-1080, 48 h
In short: (§1)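 48 h compound treatment of fibroblast-type cells seeded at 2×10^4 cells/mL, 37° C, 5% CO2; viability by CCK-8 (2 h, A450). Inhibition rate calculated against blank control, IC50 by curve fitting; pirfenidone served as reference.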

[2] = test system: mouse macrophages (RAW264.7); experiment: Lipopolysaccharide-induced NO secretion in macrophages (Griess); conditions: Mus musculus, RAW264.7, 24 h, RAW264.7, LPS 1 μg/ml, a/b isomers given as first/second symbol, read-out: IC50 (μM), inhibition of lipopolysaccharide-induced NO secretion in macrophages
In short: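 RAW264.7 macrophages in DMEM with 10% FBS received test samples at several concentrations and were stimulated with 1 μg/ml LPS for 24 h. NO in the supernatant was measured with the Griess reagent at 548 nm, […].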

[3] = test system: human lung fibroblasts HFL1; experiment: Anti-fibrosis activity test: inhibition of proliferation of human lung fibroblasts HFL1 (CCK-8); conditions: Homo sapiens, HFL1, 48 h
In short: as §1

BHK-21 cells = experiment: Anti-fibrosis activity test: inhibition of BHK-21 cell proliferation (CCK-8); conditions: Mesocricetus auratus, BHK-21, 48 h
In short: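 BHK-21 cells seeded at 2×10^4 cells/mL, allowed to adhere 24 h at 37° C, 5% CO2, then exposed to compounds at graded concentrations in triplicate for 48 h. CCK-8 added for 2 h and absorbance read at 450 nm; inhibition rate taken as (1−Ai/Ao)×100% and IC50 fitted.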

[4] = test system: human dermal fibroblasts CCC-ESF-1; experiment: Anti-fibrosis activity test: inhibition of proliferation of human dermal fibroblasts CCC-ESF-1 (CCK-8); conditions: Fibroblast
In short: as §1

[5] = test system: human embryonic lung fibroblast IMR-90; experiment: Anti-fibrosis activity test: inhibition of proliferation of human embryonic lung fibroblast IMR-90 (CCK-8)
In short: as §1

[6] = test system: human hepatic stellate cells LX-2; experiment: Anti-fibrosis activity test: inhibition of proliferation of human hepatic stellate cells LX-2 (CCK-8); conditions: Homo sapiens, 48 h
In short: as §1

[7] = test system: cardiac fibroblast RAT-iCell-C002; experiment: Anti-fibrosis activity test: inhibition of proliferation of cardiac fibroblast RAT-iCell-C002 (CCK-8); conditions: Cardiac fibroblast, 48 h
In short: as §1

[8] = human fibrosarcoma cells HT-1080, CCK-8, 48 hours
[9] = human lung fibroblasts HFL1, CCK-8, 48 hours
[10] = CCK-8, 48 hours after administration
[11] = human dermal fibroblasts CCC-ESF-1, CCK-8, 48 hours
[12] = human embryonic lung fibroblast IMR-90, CCK-8, 48 hours
[13] = human hepatic stellate cells LX-2, CCK-8, 48 hours
[14] = cardiac fibroblast RAT-iCell-C002, CCK-8, 48 hours
[15] = Homo sapiens, CCC-ESF-1 cells, 48 h, CCK-8
[16] = Homo sapiens, IMR-90 cells, 48 h, CCK-8

| Compound | IC50 [1, 8] [mM] | IC50 [2] [µM] | IC50 ([1]; HT-1080 cells, 48 h, CCK-8) [mM] | IC50 [3, 9] [mM] | IC50 (BHK-21 cells; [10]) [mM] | IC50 [4, 11] [mM] | IC50 [5, 12] [mM] | IC50 [6, 13] [mM] | IC50 [7, 14] [mM] | IC50 ([3]; HFL1 cells, 48 h, CCK-8) [mM] | IC50 (BHK-21 cells; 48 h, CCK-8) [mM] | IC50 [4, 15] [mM] | IC50 [5, 16] [mM] | IC50 ([6]; LX-2, 48 h, LX-2 cells, CCK-8) [mM] | IC50 ([7]; RAT-iCell-C002 cells, CCK-8) [mM] |
| --- | --- | --- | --- | --- | --- | --- | --- | --- | --- | --- | --- | --- | --- | --- | --- |
| O=C1c2c(nc3c(F)cccc3c2OCc2ccc(Cl)cc2)-c2cccn21 [Compound 453b, 9-((4-chlorobenzyl)oxy)-5-fluoro-10H-pyrrolizino[1,2-b]quinolin-10-one] | 0.05 to 5 | 10 to 50 |  | 0.05 to 5 | 0.05 to 5 | 0.05 to 5 | 0.05 to 5 | 0.05 to 5 | 0.05 to 5 |  |  |  |  |  |  |
| O=C1c2c(nc3c(Cl)cccc3c2OCc2ccc(F)cc2)-c2cccn21 [Compound 481b, 5-chloro-9-((4-fluorobenzyl)oxy)-10H-pyrrolizino[1,2-b]quinolin-10-one] | 0.05 to 5 | 1 to 10 |  | 0.05 to 5 | 0.05 to 5 | 0.05 to 5 | 0.05 to 5 | 0.05 to 5 | 0.05 to 5 |  |  |  |  |  |  |
| O=C1c2c(nc3ccc(F)cc3c2Oc2ccc(Cl)cc2)-c2cccn21 [Compound 133b, 9-(4-chlorophenoxy)-7-fluoro-10H-pyrrolizino[1,2-b]quinolin-10-one] | 0.05 to 5 | 1 to 10 |  | 0.05 to 5 | 0.05 to 5 | 0.05 to 5 | 0.05 to 5 | 0.05 to 5 | 0.05 to 5 |  |  |  |  |  |  |
| O=C1c2c(nc3cccc(F)c3c2OCc2cccc(F)c2)-c2cccn21 [Compound 475b, 8-fluoro-9-((3-fluorobenzyl)oxy)-10H-pyrrolizino[1,2-b]quinolin-10-one] | < 0.05 | 1 to 10 |  | 0.05 to 5 | 0.05 to 5 | 0.05 to 5 | 0.05 to 5 | 0.05 to 5 | 0.05 to 5 |  |  |  |  |  |  |
| O=C1c2c(nc3cccc(F)c3c2O)-c2cccn21 [Compound 467b, 8-fluoro-9-hydroxy-10H-pyrrolizino[1,2-b]quinolin-10-one] | 0.05 to 5 | 1 to 10 |  | 0.05 to 5 | 0.05 to 5 | 0.05 to 5 | 0.05 to 5 | 0.05 to 5 | 0.05 to 5 |  |  |  |  |  |  |
| O=C1c2c(nc3cccc(C(F)(F)F)c3c2OCc2ccccc2Cl)-c2cccn21 [Compound 472b, 9-((2-chlorobenzyl)oxy)-8-(trifluoromethyl)-10H-pyrrolizino[1,2-b]quinolin-10-one] | 0.05 to 5 | 1 to 10 |  | 0.05 to 5 | 0.05 to 5 | 0.05 to 5 | 0.05 to 5 | 0.05 to 5 | 0.05 to 5 |  |  |  |  |  |  |
| O=C1c2c([nH]c3cc(N4CCNCC4)c(OC(F)(F)F)cc3c2=O)-c2cccn21 [Compound 409a, 6-(Piperazin-1-yl)-7-(trifluoromethoxy)-9H-pyrrolizino[1,2-b]quinoline-9,10(4H)-dione] | 0.05 to 5 | 1 to 10 |  | 0.05 to 5 | 0.05 to 5 | 0.05 to 5 | 0.05 to 5 | 0.05 to 5 | 0.05 to 5 |  |  |  |  |  |  |
| O=C1c2c(n(Cc3cccc(F)c3)c3cccc(F)c3c2=O)-c2cccn21 [Compound 475a, 8-Fluoro-4-(3-fluorobenzyl)-9H-pyrrolizino[1,2-b]quinoline-9,10(4H)-dione] | 5 to 20 | 1 to 10 |  | 0.05 to 5 | 0.05 to 5 | 0.05 to 5 | 0.05 to 5 | 0.05 to 5 | 0.05 to 5 |  |  |  |  |  |  |
| O=C1c2c(n(Cc3ccccc3Cl)c3cccc(C(F)(F)F)c3c2=O)-c2cccn21 [Compound 472a, 4-(2-Chlorobenzyl)-8-(trifluoromethyl)-9H-pyrrolizino[1,2-b]quinoline-9,10(4H)-dione] | 0.05 to 5 | 1 to 10 |  | 0.05 to 5 | < 0.05 | 0.05 to 5 | 0.05 to 5 | 0.05 to 5 | 0.05 to 5 |  |  |  |  |  |  |
| CCOc1c2c(nc3cc(N4CCNCC4)c(F)cc13)-c1cccn1C2=O [Compound 329b, 9-ethoxy-7-fluoro-6-(piperazin-1-yl)-10H-pyrrolizino[1,2-b]quinolin-10-one] | 0.05 to 5 | 1 to 10 |  | 0.05 to 5 | 0.05 to 5 | 0.05 to 5 | 0.05 to 5 | 0.05 to 5 | < 0.05 |  |  |  |  |  |  |
| O=C1c2c(n(Cc3ccc(Cl)cc3)c3cccc(C(F)(F)F)c3c2=O)-c2cccn21 [Compound 465a, 4-(4-Chlorobenzyl)-8-(trifluoromethyl)-9H-pyrrolizino[1,2-b]quinoline-9,10(4H)-dione] | 0.05 to 5 | 0.1 to 1 |  | 0.05 to 5 | 0.05 to 5 | 0.05 to 5 | 0.05 to 5 | 0.05 to 5 | 0.05 to 5 |  |  |  |  |  |  |
| O=C1c2c(n(CCO)c3ccc(F)cc3c2=O)-c2cccn21 [Compound 114a, 7-Fluoro-4-(2-hydroxyethyl)-9H-pyrrolizino[1,2-b]quinoline-9,10(4H)-dione] | 0.05 to 5 | 1 to 10 |  | 0.05 to 5 | < 0.05 | 0.05 to 5 | 0.05 to 5 | 0.05 to 5 | 0.05 to 5 |  |  |  |  |  |  |
| C=CCOc1c2c(nc3cc(N4CCNCC4)c(F)cc13)-c1cccn1C2=O [Compound 349b, 9-(allyloxy)-7-fluoro-6-(piperazin-1-yl)-10H-pyrrolizino[1,2-b]quinolin-10-one] | 0.05 to 5 | 1 to 10 |  | 0.05 to 5 | 0.05 to 5 | 0.05 to 5 | 0.05 to 5 | 0.05 to 5 | 0.05 to 5 |  |  |  |  |  |  |
| O=C1c2c(nc3ccc(Cl)cc3c2O)-c2cccn21 [Compound 180b, 7-chloro-9-hydroxy-10H-pyrrolizino[1,2-b]quinolin-10-one] | 0.05 to 5 | 1 to 10 |  | 0.05 to 5 | 0.05 to 5 | 0.05 to 5 | 0.05 to 5 | 0.05 to 5 | 0.05 to 5 |  |  |  |  |  |  |

More lines, main results first:

| IC50 [1, 8] [mM] | IC50 [2] [µM] | IC50 ([1]; HT-1080 cells, 48 h, CCK-8) [mM] | Compound | IC50 [3, 9] [mM] | IC50 (BHK-21 cells; [10]) [mM] | IC50 [4, 11] [mM] | IC50 [5, 12] [mM] | IC50 [6, 13] [mM] | IC50 [7, 14] [mM] | IC50 ([3]; HFL1 cells, 48 h, CCK-8) [mM] | IC50 (BHK-21 cells; 48 h, CCK-8) [mM] | IC50 [4, 15] [mM] | IC50 [5, 16] [mM] | IC50 ([6]; LX-2, 48 h, LX-2 cells, CCK-8) [mM] | IC50 ([7]; RAT-iCell-C002 cells, CCK-8) [mM] |
| --- | --- | --- | --- | --- | --- | --- | --- | --- | --- | --- | --- | --- | --- | --- | --- |
|  | 0.1 to 1 | 0.05 to 5 | O=C1c2c(c(=O)c3ccccc3n2CCN2CCNCC2)-c2cccn21 [Compound 792a, 6-(2-(Piperazin-1-yl)ethyl)-5H-pyrrolizino[2,1-b]quinoline-5,11(6H)-dione] |  |  |  |  |  |  | 0.05 to 5 | 0.05 to 5 | < 0.05 | 0.05 to 5 | 0.05 to 5 | 0.05 to 5 |
| 0.05 to 5 | 1 to 10 |  | O=C1c2c(n(Cc3ccccc3F)c3cc(Cl)ccc3c2=O)-c2cccn21 [Compound 504a, 6-Chloro-4-(2-fluorobenzyl)-9H-pyrrolizino[1,2-b]quinoline-9,10(4H)-dione] | 0.05 to 5 | < 0.05 | 0.05 to 5 | 0.05 to 5 | 0.05 to 5 | 0.05 to 5 |  |  |  |  |  |  |
|  | 10 to 50 | 0.05 to 5 | Cc1cc(C)c2[nH]c3c(c(=O)c2c1)-c1cccn1C3=O [Compound 780a, 7,9-Dimethyl-5H-pyrrolizino[2,1-b]quinoline-5,11(6H)-dione] |  |  |  |  |  |  | 0.05 to 5 | 0.05 to 5 | 0.05 to 5 | 0.05 to 5 | 0.05 to 5 | 0.05 to 5 |
| 0.05 to 5 | 1 to 10 |  | O=C1c2c(nc3cc(Cl)ccc3c2O)-c2cccn21 [Compound 500b, 6-chloro-9-hydroxy-10H-pyrrolizino[1,2-b]quinolin-10-one] | 0.05 to 5 | 0.05 to 5 | 0.05 to 5 | 0.05 to 5 | 0.05 to 5 | 0.05 to 5 |  |  |  |  |  |  |
|  | 10 to 50 | 0.05 to 5 | Cc1ccc2[nH]c3c(c(=O)c2c1)-c1cccn1C3=O [Compound 777a, 9-Methyl-5H-pyrrolizino[2,1-b]quinoline-5,11(6H)-dione] |  |  |  |  |  |  | 0.05 to 5 | < 0.05 | 0.05 to 5 | 0.05 to 5 | 0.05 to 5 | 0.05 to 5 |
|  | 1 to 10 | 0.05 to 5 | O=C1c2c(c(=O)c3ccccc3n2CCCCN2CCNCC2)-c2cccn21 [Compound 794a, 6-(4-(Piperazin-1-yl)butyl)-5H-pyrrolizino[2,1-b]quinoline-5,11(6H)-dione] |  |  |  |  |  |  | 0.05 to 5 | 0.05 to 5 | 0.05 to 5 | 0.05 to 5 | 0.05 to 5 | 0.05 to 5 |
|  | 1 to 10 | 0.05 to 5 | O=C1c2nc3ccccc3c(OCCN3CCOCC3)c2-c2cccn21 [Compound 785b, 11-(2-morpholinoethoxy)-5H-pyrrolizino[2,1-b]quinolin-5-one] |  |  |  |  |  |  | 0.05 to 5 | 0.05 to 5 | 0.05 to 5 | 0.05 to 5 | 0.05 to 5 | 0.05 to 5 |
